From US12295920B2, “Composition for treatment, prevention, or amelioration of Alzheimer's disease, a composition for suppression of brain nerve cell death, a composition for suppression of microglia activation induced by amyloid β peptide, and a composition for suppression of PGE2, TNF-α, or IL-1β production induced …” (House Wellness Foods Corporation, priority 2018, dated 2025) come the findings set out here.

The test system of assay [1] is macrophage cells differentiated from THP-1 cells. Description: Suppression of PGE2 production by macrophage cells activated by amyloid β peptide aggregate (ELISA). It is filed as cell-based, human. The note with it: 12.5 to 100 μM compound, 24 h pretreatment; 25 μM Aβ aggregate 24 h; FIG. 1. As for the experimental part:
(§1) 1.4. Evaluation of Activity of Suppressing Activation of Macrophage Cells Induced by Amyloid β Peptide Cells of the human monocytic cell line THP-1 were suspended in RPMI1640 (10% FBS) medium, the cells were seeded in a 96-well plate at 8.0×10^4 cells/well, 100 nM 12-O-tetradecanoylphorbol 13-acetate (PMA, differentiation-inducing factor) was added thereto, and culture was conducted in the presence of 5% CO2 for 24 hours to differentiate the cells into macrophage cells. Thereafter, the medium was exchanged with another RPMI1640 (10% FBS) medium containing either the turmeric extracts (50, 100, and 200 μg/ml), termeronol A (12.5, 25, 50, or 100 μM), or termeronol B (12.5, 25, 50, or 100 μM), and culture was conducted in the presence of 5% CO2 for 24 hours to treat the cells with each specimen. Thereafter, the medium was exchanged with another RPMI1640 (2% FBS) medium containing an aggregate of 25 μM amyloid β peptides (Aβ), and culture was conducted in the presence of 5% CO2 for 24 hours to activate the cells. Thereafter, prostaglandin E2 (PGE2), the tumor necrosis factor α (TNF-α), and interleukin-1β (IL-1β) released in the medium were assayed via ELISA.
In general terms: In an ELISA, binding on a coated surface is turned into a signal by an enzyme label.

Assay [2] shares this test system. Description: Suppression of TNF-α production by macrophage cells activated by amyloid β peptide aggregate (ELISA). The format is cell-based, human. The note with it: 50 μM and 100 μM compound, 24 h pretreatment; 25 μM Aβ aggregate 24 h; FIG. 2. As for the experimental part:
as §1

For assay [3] the test system is unchanged. Description: Suppression of IL-1β production by macrophage cells activated by amyloid β peptide aggregate (ELISA). The format is cell-based, human. The note with it: 50 μM and 100 μM compound, 24 h pretreatment; 25 μM Aβ aggregate 24 h; FIG. 3. As for the experimental part:
as §1

The test system of assay [4] is human neuroblastoma SHSY5Y cells. Description: Cell death of SHSY5Y cells induced by conditioned medium of Aβ-activated macrophage cells (WST-1 assay). The note with it: macrophage cells pretreated with termeronol B 50 μM 24 h, then 25 μM Aβ 12 h; SHSY5Y 48 h in conditioned medium; vs control (Aβ+); FIG. 4. It is filed as cell-based. As for the experimental part: Cells of the human monocytic cell line THP-1 were suspended in RPMI1640 (10% FBS) medium, the cells were seeded in a 96-well plate at 8.0×10^4 cells/well, 100 nM 12-O-tetradecanoylphorbol 13-acetate (PMA, differentiation-inducing factor) was added thereto, and culture was conducted in the presence of 5% CO2 for 24 hours to differentiate the cells into macrophage cells. […]
WST-1 assays comprise: adding WST-1 (2-(4-iodophenyl)-3-(4-nitrophenyl)-5-(2,4-disulfophenyl)-2H-tetrazolium, monosodium salt, Dojindo Laboratories) to each well containing cells; conducting culture in a CO2 incubator for a given period of time to generate water-soluble formazan from WST-1 with the activity of dehydrogenase in mitochondria of viable cells; and assaying the concentration of the generated formazan. […] The formazan concentration was determined based on the absorbance at 450 nm using a microplate reader (reference wavelength: 630 nm). […]
A general note: Tetrazolium assays rely on reduction of a dye to a coloured formazan, in cell work by metabolically active cells.

Consider `CC(C)=CC(=O)CC(C)c1ccc(C)c(O)c1` (stereo not shown) [termeronol A, Termeronol A], for which the “enhancement of PEG2 production by Aβ treatment” value in assay [1] is listed as “suppress the enhancement of PEG2 production”. For the same molecule, the “enhancement of TNF-α production by Aβ treatment” value in assay [2] is given as “suppress the enhancement of TNF-α production”. Also, the “enhancement of IL-1β production by Aβ treatment” value in assay [3] is listed as “suppress the enhancement of IL-1β production”.

Take `CC(C)=CC(=O)CC(C)c1ccc(C)cc1O` (stereo not shown) [termeronol B, Termeronol B]: the “enhancement of PEG2 production by Aβ treatment” value in assay [1] was “suppress the enhancement of PEG2 production”. Also, the “enhancement of TNF-α production by Aβ treatment” value in assay [2] is recorded as “suppress the enhancement of TNF-α production”. In assay [3], the “enhancement of IL-1β production by Aβ treatment” value was “suppress the enhancement of IL-1β production”. In addition, the “activity of the culture supernatant for inducing cell death of brain neuronal cells” value in assay [4] is recorded as “more suppressed”.
